For experiment [1], the system named is Cavia porcellus. As to the kind of experiment: Antiasthmatic activity in Cavia porcellus Hartley (guinea pig) ovalbumin-induced hyperresponsive model assessed as cough latency at 50 mg/kg, ip qd administered for 7 days challenged 30 min post last dose on day 7 (reference value: 4.75 +/- 0.86 min). It counts as functional. The note with it: route intraperitoneal.

Experiment [2] has as its system Cavia porcellus. As to the kind of experiment: Antiasthmatic activity in Cavia porcellus Hartley (guinea pig) ovalbumin-induced hyperresponsive model assessed as reduction in total lymphocyte count in BAL at 50 mg/kg, ip qd administered for 7 days challenged 30 min post last dose on day 7. Details: dose 50 mg/kg. The format is functional, organism-based.
Experiment [3] concerns Cavia porcellus. Nature of the experiment: Antiasthmatic activity in Cavia porcellus Hartley (guinea pig) ovalbumin-induced hyperresponsive model assessed as reduction in total lymphocyte count in BAL at 100 mg/kg, ip qd administered for 7 days challenged 30 min post last dose on day 7. It counts as functional, organism-based. More on the design: dose 100 mg/kg.
For experiment [4], the system named is Cavia porcellus. Nature of the experiment: Antiasthmatic activity in Cavia porcellus Hartley (guinea pig) ovalbumin-induced hyperresponsive model assessed as reduction in eosinophil count in BAL at 100 mg/kg, ip qd administered for 7 days challenged 30 min post last dose on day 7. It counts as functional, organism-based. Details: dose 100 mg/kg.
Experiment [5] has as its system Cavia porcellus. Nature of the experiment: Antiasthmatic activity in Cavia porcellus Hartley (guinea pig) ovalbumin-induced hyperresponsive model assessed as decrease in nitrate/nitrite level in BAL at 100 mg/kg, ip qd administered for 7 days challenged 30 min post last dose on day 7 by griess assay (reference value: 70.16 +/- 6.20 umol/ml). The note with it: route intraperitoneal. The format is functional. (In general: Griess reagent forms a coloured azo dye with nitrite.)

For experiment [6], the system named is Cavia porcellus. As to the kind of experiment: Antiasthmatic activity in Cavia porcellus Hartley (guinea pig) ovalbumin-induced hyperresponsive model assessed as reduction in TBARS level in per gram of lung tissue at 100 mg/kg, ip qd administered for 7 days challenged 30 min post last dose on day 7 (reference value: 0.291 +/- 0.039 nmol/g). It counts as functional. Conditions: route intraperitoneal.

For experiment [7], the system named is Cavia porcellus. As to the kind of experiment: Antiasthmatic activity in Cavia porcellus Hartley (guinea pig) ovalbumin-induced hyperresponsive model assessed as increase in GSH level in BAL at 100 mg/kg, ip qd administered for 7 days challenged 30 min post last dose on day 7 (reference value: 28.95 +/- 3.66 umol/ml). The format is functional. The note with it: route intraperitoneal.

The subject of experiment [8] is Cavia porcellus. Nature of the experiment: Antiasthmatic activity in Cavia porcellus Hartley (guinea pig) ovalbumin-induced hyperresponsive model assessed as cough latency at 100 mg/kg, ip qd administered for 7 days challenged 30 min post last dose on day 7 (reference value: 4.75 +/- 0.86 min). The format is functional. Conditions: route intraperitoneal.
Experiment [9] concerns Cavia porcellus. Nature of the experiment: Antiasthmatic activity in Cavia porcellus Hartley (guinea pig) ovalbumin-induced hyperresponsive model assessed as reduction in TBARS level in BAL at 100 mg/kg, ip qd administered for 7 days challenged 30 min post last dose on day 7 (reference value: 0.471 +/- 0.08 nmol/ml). It counts as functional. Conditions: route intraperitoneal.

Experiment [10] deals with Cavia porcellus. As to the kind of experiment: Antiasthmatic activity in Cavia porcellus Hartley (guinea pig) ovalbumin-induced hyperresponsive model assessed as increase in GSH level in per gram of lung tissue at 100 mg/kg, ip qd administered for 7 days challenged 30 min post last dose on day 7 (reference value: 15.175 +/- 1.809 umol/g). The note with it: route intraperitoneal. It counts as functional.

For experiment [11], the system named is Cavia porcellus. Nature of the experiment: Antiasthmatic activity in Cavia porcellus Hartley (guinea pig) ovalbumin-induced hyperresponsive model assessed as reduction in eosinophil count in BAL at 50 mg/kg, ip qd administered for 7 days challenged 30 min post last dose on day 7. The format is functional, organism-based. More on the design: dose 50 mg/kg.

The test system of experiment [12] is Cavia porcellus. Nature of the experiment: Antiasthmatic activity in Cavia porcellus Hartley (guinea pig) ovalbumin-induced hyperresponsive model assessed as decrease in nitrate/nitrite level in per gram of lung tissue at 100 mg/kg, ip qd administered for 7 days challenged 30 min post last dose on day 7 by griess assay (reference value: 195.55 +/- 8.34 umol/g). The format is functional. Conditions: route intraperitoneal.

For experiment [13], the system named is Cavia porcellus. Nature of the experiment: Antiasthmatic activity in Cavia porcellus Hartley (guinea pig) ovalbumin-induced hyperresponsive model assessed as reduction in total lymphocyte count in BAL at 20 mg/kg, ip qd administered for 7 days challenged 30 min post last dose on day 7. It counts as functional, organism-based. Details: dose 20 mg/kg.
Experiment [14] deals with Cavia porcellus. As to the kind of experiment: Antiasthmatic activity in Cavia porcellus Hartley (guinea pig) ovalbumin-induced hyperresponsive model assessed as cough latency at 20 mg/kg, ip qd administered for 7 days challenged 30 min post last dose on day 7 (reference value: 4.75 +/- 0.86 min). It counts as functional. Conditions: route intraperitoneal.
The subject of experiment [15] is Cavia porcellus. Nature of the experiment: Antiasthmatic activity in Cavia porcellus Hartley (guinea pig) ovalbumin-induced hyperresponsive model assessed as reduction in eosinophil count in BAL at 20 mg/kg, ip qd administered for 7 days challenged 30 min post last dose on day 7. It counts as functional, organism-based. Details: dose 20 mg/kg.
For experiment [16], the system named is Cavia porcellus. Nature of the experiment: Antiasthmatic activity in Cavia porcellus Hartley (guinea pig) ovalbumin-induced hyperresponsive model assessed as cough latency at 10 mg/kg, ip qd administered for 7 days challenged 30 min post last dose on day 7 (reference value: 4.75 +/- 0.86 min). It counts as functional. The note with it: route intraperitoneal.

Experiment [17] deals with Cavia porcellus. Nature of the experiment: Antiasthmatic activity in Cavia porcellus Hartley (guinea pig) ovalbumin-induced hyperresponsive model assessed as reduction in TBARS level in per gram of lung tissue at 20 mg/kg, ip qd administered for 7 days challenged 30 min post last dose on day 7 (reference value: 0.291 +/- 0.039 nmol/g). It counts as functional. Conditions: route intraperitoneal.

In experiment [18] the test system is Cavia porcellus. As to the kind of experiment: Antiasthmatic activity in Cavia porcellus Hartley (guinea pig) ovalbumin-induced hyperresponsive model assessed as reduction in TBARS level in BAL at 20 mg/kg, ip qd administered for 7 days challenged 30 min post last dose on day 7 (reference value: 0.471 +/- 0.08 nmol/ml). It counts as functional. Conditions: route intraperitoneal.

Experiment [19] relates to Cavia porcellus. As to the kind of experiment: Antiasthmatic activity in Cavia porcellus Hartley (guinea pig) ovalbumin-induced hyperresponsive model assessed as increase in GSH level in per gram of lung tissue at 20 mg/kg, ip qd administered for 7 days challenged 30 min post last dose on day 7 (reference value: 15.175 +/- 1.809 umol/g). The note with it: route intraperitoneal. It counts as functional.

In experiment [20] the test system is Cavia porcellus. Nature of the experiment: Antiasthmatic activity in Cavia porcellus Hartley (guinea pig) ovalbumin-induced hyperresponsive model assessed as decrease in nitrate/nitrite level in per gram of lung tissue at 20 mg/kg, ip qd administered for 7 days challenged 30 min post last dose on day 7 by griess assay (reference value: 195.55 +/- 8.34 umol/g). The format is functional. The note with it: route intraperitoneal.

Experiment [21] concerns Bronchus smooth muscle. As to the kind of experiment: Inhibition of ovalbumin-induced constriction of Cavia porcellus (guinea pig) bronchial smooth muscle. It counts as functional.
The test system of experiment [22] is Cavia porcellus. Nature of the experiment: Antiasthmatic activity in Cavia porcellus Hartley (guinea pig) ovalbumin-induced hyperresponsive model assessed as decrease in nitrate/nitrite level in BAL at 20 mg/kg, ip qd administered for 7 days challenged 30 min post last dose on day 7 by griess assay (reference value: 70.16 +/- 6.20 umol/ml). The format is functional. Conditions: route intraperitoneal.

The test system of experiment [23] is Cavia porcellus. As to the kind of experiment: Antiasthmatic activity in Cavia porcellus Hartley (guinea pig) ovalbumin-induced hyperresponsive model assessed as increase in GSH level in BAL at 20 mg/kg, ip qd administered for 7 days challenged 30 min post last dose on day 7 (reference value: 28.95 +/- 3.66 umol/ml). It counts as functional. The note with it: route intraperitoneal.

Active and inactive are the calls of the source. No cut-off for these calls is given here.

This is an account of results in ChEMBL document CHEMBL3044790, “Evaluation of antiasthmatic activity of 7,8,9,10-tetrahydroazepino[2,1-b]quinazolin-12(6H)-one in combination with ambroxol in Guinea pigs” (2012).

For `Nc1c(Br)cc(Br)cc1CN[C@H]1CC[C@H](O)CC1` [AMBROXOL], the Time in experiment [1] amounted to 5.627 min; in experiment [8], 13.17 min. Moreover, the result in experiment [2], in [3], in experiment [4] and in experiment [11] was Active. The Activity was determined as 49.075 µmol/mL in experiment [5]; 0.146 nmol in experiment [6]; 56.83 µmol/mL in experiment [7]; 0.325 nmol/mL in [9]; 50.28 µmol in [10]; 134.67 µmol in experiment [12].

Take `O=c1c2ccccc2nc2n1CCCCC2`: the outcome in experiment [13] and in [15] was Active. For the same compound, the Time is on record as 22.32 min in experiment [14] and 15.67 min in [16]. Moreover, the Activity turned out to be 0.094 nmol in experiment [17]; 0.199 nmol/mL in experiment [18]; 66.67 µmol in experiment [19]; 81.777 µmol in [20]; 48.945 µmol/mL in experiment [22]; 71.67 µmol/mL in [23]. Further, the inhibition result in experiment [21] was “Dose-dependent effect”.
